Details: 1.0% DMSO, 24-hour incubation at ambient temperature, maximum theoretical 100 μM; for pH 2 solubility: 0.1N HCl, first value of the cell; for pH 7 solubility: 1×PBS buffer (pH 7.4), second value of the cell

Row | Structure (SMILES) | pH 2 solubility | pH 7 solubility
1 | CN(C(=O)N(c1nn(CC(F)(F)F)c2c(-c3ccc(C#CC(C)(C)S(C)(=O)=O)nc3[C@H](Cc3cc(F)cc(F)c3)NC(=O)Cn3nc(C(F)(F)F)c4c3C(F)(F)[C@@H]3C[C@H]43)ccc(Cl)c12)S(C)(=O)=O)C(C)(C)C(=O)OCOP(=O)(O)O [Compound 85, (phosphonooxy)methyl 2-(3-(4-chloro-7-(2-((S)-1-(2-((3bS,4aR)-5,5-difluoro-3-(trifluoromethyl)-3b,4,4a,5-tetrahydro-1H-cyclopropa[3,4]cyclopenta[1,2-c]pyrazol-1-yl)acetamido)-2-(3,5-difluorophenyl)ethyl)-6-(3-methyl-3-(methylsulfonyl)but-1-yn-1-yl)pyridin-3-yl)-1-(2,2,2-trifluoroethyl)-1H-indazol-3-yl)-1-methyl-3-(methylsulfonyl)ureido)-2-methylpropanoate] | 5 μM | 65 μM
2 | COC(=O)N(c1nn(CC(F)(F)F)c2c(-c3ccc(C#CC(C)(C)S(C)(=O)=O)nc3[C@H](Cc3cc(F)cc(F)c3)NC(=O)Cn3nc(C(F)(F)F)c4c3C(F)(F)[C@@H]3C[C@H]43)ccc(Cl)c12)S(C)(=O)=O [Compound 89, methyl (4-chloro-7-(2-((S)-1-(2-((3bS,4aR)-5,5-difluoro-3-(trifluoromethyl)-3b,4,4a,5-tetrahydro-1H-cyclopropa[3,4]cyclopenta[1,2-c]pyrazol-1-yl)acetamido)-2-(3,5-difluorophenyl)ethyl)-6-(3-methyl-3-(methylsulfonyl)but-1-yn-1-yl)pyridin-3-yl)-1-(2,2,2-trifluoroethyl)-1H-indazol-3-yl)(methylsulfonyl)carbamate] | 3/3 μM | 3/3 μM
3 | CC(C)(C#Cc1ccc(-c2ccc(Cl)c3c(N(C(=O)OCOC(=O)/C=C/C(=O)O)S(C)(=O)=O)nn(CC(F)(F)F)c23)c([C@H](Cc2cc(F)cc(F)c2)NC(=O)Cn2nc(C(F)(F)F)c3c2C(F)(F)[C@@H]2C[C@H]32)n1)S(C)(=O)=O [Compound 93, (E)-4-((((4-chloro-7-(2-((S)-1-(2-((3bS,4aR)-5,5-difluoro-3-(trifluoromethyl)-3b,4,4a,5-tetrahydro-1H-cyclopropa[3,4]cyclopenta[1,2-c]pyrazol-1-yl)acetamido)-2-(3,5-difluorophenyl)ethyl)-6-(3-methyl-3-(methylsulfonyl)but-1-yn-1-yl)pyridin-3-yl)-1-(2,2,2-trifluoroethyl)-1H-indazol-3-yl)(methylsulfonyl)carbamoyl)oxy)methoxy)-4-oxobut-2-enoic acid] | 1 μM | 22 μM
4 | C[C@H](O)[C@H](C)OC(=O)N(c1nn(CC(F)(F)F)c2c(-c3ccc(C#CC(C)(C)S(C)(=O)=O)nc3[C@H](Cc3cc(F)cc(F)c3)NC(=O)Cn3nc(C(F)(F)F)c4c3C(F)(F)[C@@H]3C[C@H]43)ccc(Cl)c12)S(C)(=O)=O [Compound 95, (2S,3S)-3-hydroxybutan-2-yl (4-chloro-7-(2-((S)-1-(2-((3bS,4aR)-5,5-difluoro-3-(trifluoromethyl)-3b,4,4a,5-tetrahydro-1H-cyclopropa[3,4]cyclopenta[1,2-c]pyrazol-1-yl)acetamido)-2-(3,5-difluorophenyl)ethyl)-6-(3-methyl-3-(methylsulfonyl)but-1-yn-1-yl)pyridin-3-yl)-1-(2,2,2-trifluoroethyl)-1H-indazol-3-yl)(methylsulfonyl)carbamate] | 1 μM | 3 μM
5 | C[C@H](OC(=O)N(c1nn(CC(F)(F)F)c2c(-c3ccc(C#CC(C)(C)S(C)(=O)=O)nc3[C@H](Cc3cc(F)cc(F)c3)NC(=O)Cn3nc(C(F)(F)F)c4c3C(F)(F)[C@@H]3C[C@H]43)ccc(Cl)c12)S(C)(=O)=O)[C@H](C)OP(=O)(O)O [Compound 96, (2S,3S)-3-(phosphonooxy)butan-2-yl (4-chloro-7-(2-((S)-1-(2-((3bS,4aR)-5,5-difluoro-3-(trifluoromethyl)-3b,4,4a,5-tetrahydro-1H-cyclopropa[3,4]cyclopenta[1,2-c]pyrazol-1-yl)acetamido)-2-(3,5-difluorophenyl)ethyl)-6-(3-methyl-3-(methylsulfonyl)but-1-yn-1-yl)pyridin-3-yl)-1-(2,2,2-trifluoroethyl)-1H-indazol-3-yl)(methylsulfonyl)carbamate] | 1 μM | 99 μM
6 | CC(C)(C#Cc1ccc(-c2ccc(Cl)c3c(N(C(=O)OCCCO)S(C)(=O)=O)nn(CC(F)(F)F)c23)c([C@H](Cc2cc(F)cc(F)c2)NC(=O)Cn2nc(C(F)(F)F)c3c2C(F)(F)[C@@H]2C[C@H]32)n1)S(C)(=O)=O [Compound 97, 3-hydroxypropyl (4-chloro-7-(2-((S)-1-(2-((3bS,4aR)-5,5-difluoro-3-(trifluoromethyl)-3b,4,4a,5-tetrahydro-1H-cyclopropa[3,4]cyclopenta[1,2-c]pyrazol-1-yl)acetamido)-2-(3,5-difluorophenyl)ethyl)-6-(3-methyl-3-(methylsulfonyl)but-1-yn-1-yl)pyridin-3-yl)-1-(2,2,2-trifluoroethyl)-1H-indazol-3-yl)(methylsulfonyl)carbamate] | 1 μM | 2 μM
7 | CC(C)(C#Cc1ccc(-c2ccc(Cl)c3c(N(C(=O)OCCCOP(=O)(O)O)S(C)(=O)=O)nn(CC(F)(F)F)c23)c([C@H](Cc2cc(F)cc(F)c2)NC(=O)Cn2nc(C(F)(F)F)c3c2C(F)(F)[C@@H]2C[C@H]32)n1)S(C)(=O)=O [Compound 98, 3-(phosphonooxy)propyl (4-chloro-7-(2-((S)-1-(2-((3bS,4aR)-5,5-difluoro-3-(trifluoromethyl)-3b,4,4a,5-tetrahydro-1H-cyclopropa[3,4]cyclopenta[1,2-c]pyrazol-1-yl)acetamido)-2-(3,5-difluorophenyl)ethyl)-6-(3-methyl-3-(methylsulfonyl)but-1-yn-1-yl)pyridin-3-yl)-1-(2,2,2-trifluoroethyl)-1H-indazol-3-yl)(methylsulfonyl)carbamate] | 1 μM | 100 μM
8 | CC(C)(C#Cc1ccc(-c2ccc(Cl)c3c(N(C(=O)OCCO)S(C)(=O)=O)nn(CC(F)(F)F)c23)c([C@H](Cc2cc(F)cc(F)c2)NC(=O)Cn2nc(C(F)(F)F)c3c2C(F)(F)[C@@H]2C[C@H]32)n1)S(C)(=O)=O [Compound 99, 2-hydroxyethyl (4-chloro-7-(2-((S)-1-(2-((3bS,4aR)-5,5-difluoro-3-(trifluoromethyl)-3b,4,4a,5-tetrahydro-1H-cyclopropa[3,4]cyclopenta[1,2-c]pyrazol-1-yl)acetamido)-2-(3,5-difluorophenyl)ethyl)-6-(3-methyl-3-(methylsulfonyl)but-1-yn-1-yl)pyridin-3-yl)-1-(2,2,2-trifluoroethyl)-1H-indazol-3-yl)(methylsulfonyl)carbamate] | 1/1 μM | 1/1 μM

From patent US12404262B2 (priority 2021, dated 2025)
